# Laboratory results from PubChem BioAssay (NCI).
#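 Following 48 hours of exposure in 96-well plates, responses at five concentrations were used to interpolate endpoints linearly. TGI: total growth inhibition.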
# Assays:
# Experiment in all cases: growth of human tumour cells (NCI), 48 h
# 786-0 renal = tested on: 786-0 renal
# A498 renal = tested on: A498 renal
# A549 NSCLC = tested on: A549 NSCLC
# ACHN renal = tested on: ACHN renal
# BT-549 breast = tested on: BT-549 breast
# CAKI-1 renal = tested on: CAKI-1 renal
# CCRF-CEM leukemia = tested on: CCRF-CEM leukemia
# COLO 205 colon = tested on: COLO 205 colon
# DU-145 prostate = tested on: DU-145 prostate
# EKVX NSCLC = tested on: EKVX NSCLC
# HCC-2998 colon = tested on: HCC-2998 colon
# HCT-116 colon = tested on: HCT-116 colon
# HCT-15 colon = tested on: HCT-15 colon
# HL-60(TB) leukemia = tested on: HL-60(TB) leukemia
# HOP-62 NSCLC = tested on: HOP-62 NSCLC
# HOP-92 NSCLC = tested on: HOP-92 NSCLC
# HS 578T breast = tested on: HS 578T breast
# HT29 colon = tested on: HT29 colon
# IGROV1 ovarian = tested on: IGROV1 ovarian
# KM12 colon = tested on: KM12 colon
# LOX IMVI melanoma = tested on: LOX IMVI melanoma
# M14 melanoma = tested on: M14 melanoma
# MCF7 breast = tested on: MCF7 breast
# MDA-MB-231 breast = tested on: MDA-MB-231 breast
# MDA-MB-435 = tested on: MDA-MB-435
# MDA-N = tested on: MDA-N
# MOLT-4 leukemia = tested on: MOLT-4 leukemia
# NCI-H226 lung = tested on: NCI-H226 lung
# NCI-H23 lung = tested on: NCI-H23 lung
# NCI-H460 lung = tested on: NCI-H460 lung
# NCI-H522 lung = tested on: NCI-H522 lung
# NCI/ADR-RES ovarian = tested on: NCI/ADR-RES ovarian
# OVCAR-3 ovarian = tested on: OVCAR-3 ovarian
# OVCAR-4 ovarian = tested on: OVCAR-4 ovarian
# OVCAR-5 ovarian = tested on: OVCAR-5 ovarian
# OVCAR-8 ovarian = tested on: OVCAR-8 ovarian
# PC-3 prostate = tested on: PC-3 prostate
# RXF 393 renal = tested on: RXF 393 renal
# SF-268 CNS = tested on: SF-268 CNS
# SF-295 CNS = tested on: SF-295 CNS
# SF-539 CNS = tested on: SF-539 CNS
# SK-MEL-2 melanoma = tested on: SK-MEL-2 melanoma
# SK-MEL-28 melanoma = tested on: SK-MEL-28 melanoma
# SK-MEL-5 melanoma = tested on: SK-MEL-5 melanoma
# SK-OV-3 ovarian = tested on: SK-OV-3 ovarian
# SN12C renal = tested on: SN12C renal
# SNB-19 CNS = tested on: SNB-19 CNS
# SNB-75 CNS = tested on: SNB-75 CNS
# SR leukemia = tested on: SR leukemia
# SW-620 colon = tested on: SW-620 colon
# T-47D breast = tested on: T-47D breast
# TK-10 renal = tested on: TK-10 renal
# U251 CNS = tested on: U251 CNS
# UACC-257 melanoma = tested on: UACC-257 melanoma
# UACC-62 melanoma = tested on: UACC-62 melanoma
# UO-31 renal = tested on: UO-31 renal
structure (smiles),measurement,setting,value
O=[N+]([O-])c1cccc(-c2csc(N=Nc3c(O)[nH]c4ccccc34)n2)c1,TGI,786-0 renal,29.8 µM
same,TGI,A498 renal,80.1 µM
same,TGI,A549 NSCLC,44 µM
same,TGI,ACHN renal,> 100 µM
same,TGI,BT-549 breast,> 100 µM
same,TGI,CAKI-1 renal,47 µM
same,TGI,CCRF-CEM leukemia,56.5 µM
same,TGI,COLO 205 colon,> 100 µM
same,TGI,DU-145 prostate,65.9 µM
same,TGI,EKVX NSCLC,61.8 µM
same,TGI,HCC-2998 colon,32 µM
same,TGI,HCT-116 colon,33.2 µM
same,TGI,HCT-15 colon,54.4 µM
same,TGI,HL-60(TB) leukemia,50.2 µM
same,TGI,HOP-62 NSCLC,59.6 µM
same,TGI,HOP-92 NSCLC,46.5 µM
same,TGI,HS 578T breast,45.7 µM
same,TGI,HT29 colon,44.5 µM
same,TGI,IGROV1 ovarian,54.6 µM
same,TGI,KM12 colon,> 100 µM
same,TGI,LOX IMVI melanoma,42.5 µM
same,TGI,M14 melanoma,> 100 µM
same,TGI,MCF7 breast,> 100 µM
same,TGI,MDA-MB-231 breast,39.5 µM
same,TGI,MDA-MB-435,> 100 µM
same,TGI,MDA-N,> 100 µM
same,TGI,MOLT-4 leukemia,69.6 µM
same,TGI,NCI-H226 lung,47.6 µM
same,TGI,NCI-H23 lung,> 100 µM
same,TGI,NCI-H460 lung,31.8 µM
same,TGI,NCI-H522 lung,36.6 µM
same,TGI,NCI/ADR-RES ovarian,29.6 µM
same,TGI,OVCAR-3 ovarian,> 100 µM
same,TGI,OVCAR-4 ovarian,61.7 µM
same,TGI,OVCAR-5 ovarian,> 100 µM
same,TGI,OVCAR-8 ovarian,30 µM
same,TGI,PC-3 prostate,99.4 µM
same,TGI,RXF 393 renal,77.9 µM
same,TGI,SF-268 CNS,38.4 µM
same,TGI,SF-295 CNS,44.4 µM
same,TGI,SF-539 CNS,68 µM
same,TGI,SK-MEL-2 melanoma,> 100 µM
same,TGI,SK-MEL-28 melanoma,36.1 µM
same,TGI,SK-MEL-5 melanoma,49.9 µM
same,TGI,SK-OV-3 ovarian,> 100 µM
same,TGI,SN12C renal,49.7 µM
same,TGI,SNB-19 CNS,82.2 µM
same,TGI,SNB-75 CNS,56.1 µM
same,TGI,SR leukemia,96.9 µM
same,TGI,SW-620 colon,> 100 µM
same,TGI,T-47D breast,82.4 µM
same,TGI,TK-10 renal,33.9 µM
same,TGI,U251 CNS,40.4 µM
same,TGI,UACC-257 melanoma,41.3 µM
same,TGI,UACC-62 melanoma,> 100 µM
same,TGI,UO-31 renal,> 100 µM
